Tested on: RAW264.7
Experiment: Antiinflammatory activity in mouse RAW264.7 assessed as inhibition of LPS-induced NO production incubated for 1 hrs followed by LPS stimulation for 18 hrs by Griess reagent based assay
Assay type: functional, cell-based

## CNC(=N)NCCC[C@H](N)C(=O)O [TILARGININE]
  IC50: 44.4 µM

From ChEMBL document CHEMBL5120822, “Inhibition of the P2X7/NLRP3 Inflammasome Signaling Pathway by Deacetylgedunin from Toona sinensis” (J Nat Prod, 2022)
